These are literature values, as cited in patent US20230330185A1, “METHODS AND COMPOSITIONS FOR TRANSDUCING HEMATOPOIETIC STEM AND PROGENITOR CELLS IN VIVO” (Magenta Therapeutics, Inc., priority 2020, published 2023).

For this data set, the system named is hematopoietic stem and progenitor cells. Particulars: as described in U.S. Pat. No. 6,080,398 and 6,447,766; cited from earlier work.

As for “Gro-β T N65D: variant of Gro-β T with aspartic acid in place of asparagine at position 65, SEQ ID NO: 4”, the “potency to induce hematopoietic stem and progenitor cell mobilization, relative to parent peptide” value is given as “substantially greater than that of Gro-β T”.

For the substance “Gro-β T: truncated Gro-β with deletion of the first four N-terminal amino acids, SEQ ID NO: 2; CXCR2 agonist”, the “potency to induce hematopoietic stem and progenitor cell mobilization, relative to parent peptide” value was “superior to that of Gro-β by multiple orders of magnitude”.
